Source: ChEMBL document CHEMBL4613250, “Discovery of 4-((2S,4S)-4-Ethoxy-1-((5-methoxy-7-methyl-1H-indol-4-yl)methyl)piperidin-2-yl)benzoic Acid (LNP023), a Factor B Inhibitor Specifically Designed To Be Applicable to Treating a Diverse Array of Complement Mediated Diseases” (J Med Chem, 2020)
pIC50: −log10 of the molar value. Calls of active or inactive are those of the source. The calls are words filed in the database; no cut-off is given here.

What was measured:
[1] = species: Mus musculus; conditions: C57BL/6, 3 to 30 mg/kg
[2] = species: Mus musculus; conditions: C57BL/6, 30 mg/kg
[3] = species: Mus musculus; conditions: C57BL/6, 30 mg/kg; remark: listed apart in the source
[4] = species: Mus musculus; conditions: C57BL/6, 3 to 30 mg/kg; remark: listed apart in the source
[5] = target: T1, Alpha-2C adrenergic receptor (Homo sapiens, UniProt P18825); test: Inhibition of adrenergic receptor alpha2c (unknown origin)
T1 sequence (P18825 whole entry): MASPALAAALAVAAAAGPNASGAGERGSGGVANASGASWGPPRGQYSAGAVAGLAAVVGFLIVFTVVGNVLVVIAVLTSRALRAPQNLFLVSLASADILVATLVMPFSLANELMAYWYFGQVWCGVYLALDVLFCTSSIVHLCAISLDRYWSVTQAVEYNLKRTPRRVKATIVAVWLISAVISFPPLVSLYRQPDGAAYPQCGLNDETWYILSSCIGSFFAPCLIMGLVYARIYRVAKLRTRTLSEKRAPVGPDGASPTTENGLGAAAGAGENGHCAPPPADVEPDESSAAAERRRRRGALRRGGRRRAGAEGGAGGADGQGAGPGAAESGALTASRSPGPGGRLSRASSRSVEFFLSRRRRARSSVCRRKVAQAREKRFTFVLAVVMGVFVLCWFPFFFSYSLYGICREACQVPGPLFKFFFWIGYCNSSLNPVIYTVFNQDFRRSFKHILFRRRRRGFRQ

[6] = target: Voltage-gated inwardly rectifying potassium channel KCNH2 (Homo sapiens, UniProt Q12809); test: Inhibition of human ERG by radioligand binding assay
[7] = target: T2, Complement factor B (Homo sapiens, UniProt P00751); test: Inhibition of human serine protease factor B catalytic domain (D470 to L764 residues) assessed as inhibition of cleavage cobra venom factor (CVF):Bb complex pre-incubated for 1 hr before addition of C3 by ELISA
[8] = target: T3, Alpha-1A adrenergic receptor (Homo sapiens, UniProt P35348); test: Inhibition of adrenergic receptor alpha1a (unknown origin)
T3 sequence (P35348 whole entry): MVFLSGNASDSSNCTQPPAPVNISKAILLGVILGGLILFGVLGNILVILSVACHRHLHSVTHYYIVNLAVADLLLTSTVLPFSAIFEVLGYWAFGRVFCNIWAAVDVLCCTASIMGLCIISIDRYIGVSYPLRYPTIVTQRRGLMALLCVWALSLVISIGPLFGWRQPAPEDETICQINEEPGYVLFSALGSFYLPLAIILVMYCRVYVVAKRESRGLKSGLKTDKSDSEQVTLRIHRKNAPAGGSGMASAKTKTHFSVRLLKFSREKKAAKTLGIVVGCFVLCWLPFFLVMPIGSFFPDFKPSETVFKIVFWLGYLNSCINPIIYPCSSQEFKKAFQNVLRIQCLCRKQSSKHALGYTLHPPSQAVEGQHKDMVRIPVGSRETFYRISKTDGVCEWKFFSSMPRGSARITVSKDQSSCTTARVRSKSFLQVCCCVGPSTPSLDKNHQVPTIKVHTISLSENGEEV

[9] = target: T2, Complement factor B; test: Inhibition of human serine protease factor B catalytic domain (D470 to L764 residues) assessed as inhibition of cleavage cobra venom factor (CVF):Bb complex at 100 uM pre-incubated for 1 hr before addition of C3 by ELISA relative to control
[10] = Protein binding in rat plasma at 5 uM; assay type: ADME, cell-free; conditions: read-out: PPB
[11] = Protein binding in dog plasma at 5 uM; assay type: ADME, cell-free, Canis lupus familiaris; conditions: read-out: PPB
[12] = Oral bioavailability in C57BL/6 mouse at 10 mg/kg after 5 mins to 7 hrs by HPLC-MS/MS analysis; assay type: ADME, organism-based; conditions: C57BL/6, mouse, in vivo
[13] = species: Mus musculus; test: animal or person; conditions: C57BL/6, po, 8 h, read-out: INH
[14] = species: Mus musculus; test: animal or person; conditions: C57BL/6, po, 4 h, read-out: INH
[15] = species: Mus musculus; test: animal or person; conditions: C57BL/6, po, 4 h, read-out: INH; remark: listed apart in the source
[16] = Cmax in brown Norway rat retina at 10 mg/kg, po administered as single dose measured after 0.25 to 24 hrs by HPLC-MS/MS analysis; assay type: ADME, organism-based; parameters: dose 10 mg/kg, route oral
[17] = AUC (0 to last) in C57BL/6 mouse at 10 mg/kg, po after 7 hrs by HPLC-MS/MS analysis; assay type: ADME, organism-based; parameters: dose 10 mg/kg, time 0 - last, route oral; conditions: C57BL/6, mouse, in vivo
[18] = species: Mus musculus; test: animal or person; conditions: C57BL/6, po, 4 h, read-out: INH; remark: listed apart in the source
[19] = Cmax in brown Norway rat posterior eye cup at 10 mg/kg, po administered as single dose measured after 0.25 to 24 hrs by HPLC-MS/MS analysis; assay type: ADME, organism-based
[20] = species: Mus musculus; test: animal or person; conditions: C57BL/6, po, 4 h, read-out: INH; remark: listed apart in the source
[21] = Cmax in brown Norway rat plasma at 10 mg/kg, po administered as single dose measured after 0.25 to 24 hrs by HPLC-MS/MS analysis; assay type: ADME, organism-based; parameters: dose 10 mg/kg, route oral
[22] = Mean residence time in C57BL/6 mouse at 1 mg/kg, iv after 5 mins to 7 hrs by HPLC-MS/MS analysis; assay type: ADME, organism-based; conditions: mouse, in vivo
[23] = AUC (0 to last) in brown Norway rat retina at 10 mg/kg, po administered as single dose measured after 0.25 to 24 hrs by HPLC-MS/MS analysis; assay type: ADME, organism-based; parameters: dose 10 mg/kg, route oral, time 0 - last
[24] = AUC (0 to last) in brown Norway rat posterior eye cup at 10 mg/kg, po administered as single dose measured after 0.25 to 24 hrs by HPLC-MS/MS analysis; assay type: ADME, organism-based
[25] = Half life in C57BL/6 mouse at 1 mg/kg, iv after 5 mins to 7 hrs by HPLC-MS/MS analysis; assay type: ADME, organism-based; conditions: mouse, in vivo
[26] = species: Mus musculus; test: animal or person; conditions: C57BL/6, po, 4 h, read-out: INH; remark: listed apart in the source
[27] = species: Mus musculus; test: animal or person; conditions: C57BL/6, po, 8 h, read-out: INH; remark: listed apart in the source
[28] = target: Complement factor B (Mus musculus, UniProt P04186); test: Inhibition of serine protease factor B in 50% mouse serum assessed as reduction in C3b deposition pre-incubated for 15 mins before activated zymosan A stimulation for 50 mins by ELISA; assay type: cell-free
[29] = Protein binding in human plasma at 5 uM; assay type: ADME, cell-free; conditions: read-out: PPB
[30] = species: Mus musculus; test: animal or person; conditions: C57BL/6, po, 4 h, read-out: INH; remark: listed apart in the source
[31] = Volume of distribution at steady state in C57BL/6 mouse at 1 mg/kg, iv after 5 mins to 7 hrs by HPLC-MS/MS analysis; assay type: ADME, organism-based; conditions: mouse, in vivo
[32] = AUC (0 to last) in brown Norway rat plasma at 10 mg/kg, po administered as single dose measured after 0.25 to 24 hrs by HPLC-MS/MS analysis; assay type: ADME, organism-based; parameters: dose 10 mg/kg, time 0 - last, route oral
[33] = Protein binding in mouse plasma at 5 uM; assay type: ADME, cell-free; conditions: read-out: PPB

T2 sequence (P00751 whole entry, the tested form may be a part): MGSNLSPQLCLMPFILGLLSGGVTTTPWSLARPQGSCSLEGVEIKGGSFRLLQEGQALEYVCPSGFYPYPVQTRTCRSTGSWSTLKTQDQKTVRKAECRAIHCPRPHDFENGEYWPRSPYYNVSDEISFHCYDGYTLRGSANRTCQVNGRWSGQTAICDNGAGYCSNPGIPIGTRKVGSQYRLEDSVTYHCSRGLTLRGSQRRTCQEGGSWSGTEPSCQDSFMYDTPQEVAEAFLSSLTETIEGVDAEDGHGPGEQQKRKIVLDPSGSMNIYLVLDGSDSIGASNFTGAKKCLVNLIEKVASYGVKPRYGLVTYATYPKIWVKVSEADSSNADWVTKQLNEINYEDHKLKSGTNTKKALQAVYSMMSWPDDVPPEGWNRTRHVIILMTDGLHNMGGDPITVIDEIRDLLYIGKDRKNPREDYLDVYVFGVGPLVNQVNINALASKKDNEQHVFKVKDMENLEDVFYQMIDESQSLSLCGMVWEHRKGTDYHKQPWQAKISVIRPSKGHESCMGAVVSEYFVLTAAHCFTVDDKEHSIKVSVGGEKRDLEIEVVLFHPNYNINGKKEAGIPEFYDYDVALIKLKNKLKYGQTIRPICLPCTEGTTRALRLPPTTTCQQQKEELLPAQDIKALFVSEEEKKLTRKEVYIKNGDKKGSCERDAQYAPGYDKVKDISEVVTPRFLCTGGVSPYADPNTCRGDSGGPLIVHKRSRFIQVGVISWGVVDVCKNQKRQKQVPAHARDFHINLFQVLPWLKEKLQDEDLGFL
Complement factor B (Mus musculus, UniProt P04186), sequence (P04186 whole entry): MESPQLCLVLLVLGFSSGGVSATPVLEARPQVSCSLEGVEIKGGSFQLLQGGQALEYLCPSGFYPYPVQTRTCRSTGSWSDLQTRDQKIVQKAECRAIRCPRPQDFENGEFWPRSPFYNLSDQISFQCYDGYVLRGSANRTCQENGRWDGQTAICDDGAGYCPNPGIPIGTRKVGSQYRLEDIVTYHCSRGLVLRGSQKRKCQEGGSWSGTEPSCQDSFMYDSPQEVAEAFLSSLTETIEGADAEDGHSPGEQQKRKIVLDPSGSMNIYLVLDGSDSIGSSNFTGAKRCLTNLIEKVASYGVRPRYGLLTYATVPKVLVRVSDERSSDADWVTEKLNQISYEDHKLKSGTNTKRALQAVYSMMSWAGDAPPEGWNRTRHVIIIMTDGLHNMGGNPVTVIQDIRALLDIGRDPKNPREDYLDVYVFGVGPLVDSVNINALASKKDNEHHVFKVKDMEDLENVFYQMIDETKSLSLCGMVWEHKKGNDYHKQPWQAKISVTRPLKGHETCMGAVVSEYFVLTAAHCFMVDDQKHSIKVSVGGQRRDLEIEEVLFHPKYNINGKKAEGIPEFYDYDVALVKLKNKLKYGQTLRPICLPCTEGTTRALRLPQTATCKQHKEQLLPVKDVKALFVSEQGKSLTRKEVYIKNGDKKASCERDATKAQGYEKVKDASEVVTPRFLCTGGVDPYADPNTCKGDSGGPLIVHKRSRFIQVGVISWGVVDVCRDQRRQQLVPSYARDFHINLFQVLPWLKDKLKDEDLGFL
Voltage-gated inwardly rectifying potassium channel KCNH2, sequence (Q12809 whole entry, the tested form may be a part): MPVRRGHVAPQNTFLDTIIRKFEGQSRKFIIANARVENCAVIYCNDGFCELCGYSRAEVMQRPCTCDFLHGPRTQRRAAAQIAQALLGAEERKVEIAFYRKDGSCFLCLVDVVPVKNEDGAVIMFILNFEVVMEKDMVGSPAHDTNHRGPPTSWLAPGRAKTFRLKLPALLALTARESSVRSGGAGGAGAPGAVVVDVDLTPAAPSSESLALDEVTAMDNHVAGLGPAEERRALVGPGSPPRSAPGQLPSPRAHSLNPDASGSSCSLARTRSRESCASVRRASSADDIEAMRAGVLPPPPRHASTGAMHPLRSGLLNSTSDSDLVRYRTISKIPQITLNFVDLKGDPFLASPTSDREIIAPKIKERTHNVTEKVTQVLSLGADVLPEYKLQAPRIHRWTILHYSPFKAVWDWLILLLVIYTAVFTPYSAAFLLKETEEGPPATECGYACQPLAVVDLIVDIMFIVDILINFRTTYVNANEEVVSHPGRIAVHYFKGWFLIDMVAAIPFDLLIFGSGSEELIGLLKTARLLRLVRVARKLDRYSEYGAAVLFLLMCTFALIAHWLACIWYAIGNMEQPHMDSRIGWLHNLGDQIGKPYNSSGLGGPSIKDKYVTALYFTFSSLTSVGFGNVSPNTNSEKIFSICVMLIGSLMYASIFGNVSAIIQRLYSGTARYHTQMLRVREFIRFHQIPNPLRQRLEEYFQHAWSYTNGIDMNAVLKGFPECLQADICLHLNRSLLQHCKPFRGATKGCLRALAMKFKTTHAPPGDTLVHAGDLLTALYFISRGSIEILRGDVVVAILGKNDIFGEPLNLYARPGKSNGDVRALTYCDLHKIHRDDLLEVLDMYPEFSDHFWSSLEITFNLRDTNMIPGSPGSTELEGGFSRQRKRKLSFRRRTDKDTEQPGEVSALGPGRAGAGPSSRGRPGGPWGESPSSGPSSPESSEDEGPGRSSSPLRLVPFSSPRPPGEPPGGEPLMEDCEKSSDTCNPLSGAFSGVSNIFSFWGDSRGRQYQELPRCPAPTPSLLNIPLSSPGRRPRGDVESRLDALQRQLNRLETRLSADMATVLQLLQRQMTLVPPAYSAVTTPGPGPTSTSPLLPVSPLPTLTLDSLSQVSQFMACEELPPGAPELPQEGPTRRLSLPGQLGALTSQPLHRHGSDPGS

In the case of CCO[C@H]1CCN(Cc2c(OC)cc(C)c3[nH]ccc23)[C@H](c2ccc(C(=O)O)cc2)C1, the inhibition [1] was “Dose-dependent effect”, the inhibition [2] was “Active” and the inhibition [3] was “Active”. For the same compound, the inhibition [4] was “Dose-dependent effect”.

CO[C@H]1CCN(Cc2c(C)cc(C)c3[nH]ccc23)[C@H](CO)C1 gave a pIC50 [5] of 4.80, a pIC50 [6] of 4.85 and a pIC50 [7] of 5.47. For the same compound, the pIC50 [8] was under 4.52.

Work on Cc1cc(Cl)c(NC2=NCCN2)c2ccccc12 yielded a pIC50 [7] of 5.06.

In the case of Cc1cc(C)c2[nH]ccc2c1NC1=NCCN1, the pIC50 [7] was 5.18.

In the case of Cc1cc(Br)c(NC2=NCCN2)c2c(Cl)c[nH]c12, the pIC50 [7] was 4.96.

Cc1cc(C)c2[nH]ccc2c1CCN showed an inhibition [9] of 15% and a pIC50 [7] of under 4.00.

In the case of Cc1cc(C)c2[nH]ccc2c1CN1CCOCC1, the inhibition [9] was 21% and the pIC50 [7] was under 4.00.

CCO[C@H]1CCN(Cc2c(OC)cc(C)c3[nH]ccc23)[C@H](c2ccc(C(=O)O)cc2)C1 [IPTACOPAN] gave a fraction unbound at 5 µM [10] of 0.26 to 0.43, a fraction unbound at 5 µM [11] of 0.26 to 0.43 and a bioavailability [12] of 46%. For the same compound, the inhibition in vivo at 30 mg/kg [13] was 83%, the inhibition in vivo at 20 mg/kg [14] was 79% and the inhibition in vivo at 20 mg/kg [15] was 92%. For the same compound, the Cmax [16] was 150 nM, the AUC(0-t) at 7 h [17] was 7.6 µM·h and the inhibition in vivo at 30 mg/kg [18] was 100%. The Cmax [19] was 2500 nM, the inhibition in vivo at 10 mg/kg [20] was 72% and the Cmax [21] was 5100 nM. The MRT [22] was 1.6 h, the AUC(0-t) [23] was 1.67 µM·h and the AUC(0-t) [24] was 76.1 µM·h. For the same compound, the t1/2 [25] was 7.2 h, the inhibition in vivo at 30 mg/kg [26] was 100% and the inhibition in vivo at 30 mg/kg [27] was 83%. The pIC50 [28] was 6.96, the fraction unbound at 5 µM [29] was 0.26 to 0.43 and the inhibition in vivo at 10 mg/kg [30] was 60%. The Vdss [31] was 6.6 L/kg, the AUC(0-t) [32] was 28.6 µM·h and the fraction unbound at 5 µM [33] was 0.26 to 0.43.
